# Reference: US20240010681A1, “PEPTIDES AND METHODS OF USE” (REALTA LIFE SCIENCES, INC., priority 2020, published 2024)
# Legend:
# C5a = C5a ELISA in plasma, two-hit ALI rat model; type: in vivo
# Method: C5a was then measured in each sample by ELISA and absorbance was read at 450 nm. Two replicates for each animal were measured for every time point. Data are means and standard error of the mean. Statistical analysis was performed using were conducted using bootstrap approach or Welch's ANOVA. * denotes p=0.010, ** denotes p=0.004, *** denotes p=0.002, and **** denotes p≤0.001 compared to 2-hit animals.
# Animals receiving the 2-hit insult had substantially more C5a production at the 1-hour time point as expected (FIG. 20).
# RLS-0071 was tested in a two-hit rat model of ALI. The first insult is neutrophil stimulation with lipopolysaccharide (LPS) followed 30 minutes later by a second insult of classical complement activation with incompatible erythrocytes. This model can produce dramatic neutrophil infiltration into alveolar walls, thickening the walls and reducing alveolar airspace by 85%. […] Given the short 5-minute half-life of C5a, the measurement of elevated C5a at 60 minutes is consistent with tissue generated C5a.
# free DNA = assay: Free DNA in plasma by PicoGreen assay, two-hit ALI rat model; type: in vivo
# Method: . Plasma samples were incubated with PicoGreen. […] All free DNA measurements for each animal were done in triplicate. Data are means and standard error of the mean. Statistical analysis was performed using bootstrap approach or Welch's ANOVA. * denotes p=0.026, ** denotes p=0.039 and *** denotes p=0.005 compared to 2-hit animals.
# Neutrophil extracellular traps (NETs) released from activated neutrophils have been previously shown to play a pathogenic role in a variety of autoimmune, metabolic, and inflammatory diseases. […] . […] .
# human neutrophils = assay: Human neutrophil viability, Cell Counting Kit-8; type: cell-based; conditions: cells in PBS or RPMI; compared to buffer alone
# Method: Cell viability in the presence of increasing amounts of PA-dPEG24 was determined using the Cell Counting Kit-8 (Dojindo). Cell Counting Kit-8 (CCK-8) is a sensitive colorimetric assay for the determination of cell viability in cell proliferation and cytotoxicity assays. The highly water-soluble tetrazolium salt, WST-8, is reduced by dehydrogenase activities in cells to give a yellow-color formazan dye, which is soluble in the tissue culture media. The amount of the formazan dye, generated by the activities of dehydrogenases in cells, is directly proportional to the number of living cells. Neutrophils were isolated from whole blood. Briefly, heparinized whole blood was collected from four different individuals (n=4). The blood was spun on a Hypaque/Ficoll gradient. The pellet was collected, and 3% dextran was added for 20 minutes. The supernatant was collected and washed several times. After a red blood cell lysis, the neutrophils were resuspended in either PBS or RPMI at a concentration of 1.0×10^6 cells/mL. ‘Fresh’ neutrophils were taken at this point and 100 uL (100,000 cells/well) were added to a 96-well plate. 10 uL of CCK-8 (Dojindo Molecular Technologies) was added to each well for 2 hours at 37 C. Absorbance at 450 nm was read to determine viability. […] Absorbance at 450 nm was read to determine viability.
# LFA-1 = LFA-1 (Homo sapiens, UniProt P05107+P20701); assay: ELISA-type plate binding assay, LFA-1
# Chain of LFA-1 (P20701 26-1170): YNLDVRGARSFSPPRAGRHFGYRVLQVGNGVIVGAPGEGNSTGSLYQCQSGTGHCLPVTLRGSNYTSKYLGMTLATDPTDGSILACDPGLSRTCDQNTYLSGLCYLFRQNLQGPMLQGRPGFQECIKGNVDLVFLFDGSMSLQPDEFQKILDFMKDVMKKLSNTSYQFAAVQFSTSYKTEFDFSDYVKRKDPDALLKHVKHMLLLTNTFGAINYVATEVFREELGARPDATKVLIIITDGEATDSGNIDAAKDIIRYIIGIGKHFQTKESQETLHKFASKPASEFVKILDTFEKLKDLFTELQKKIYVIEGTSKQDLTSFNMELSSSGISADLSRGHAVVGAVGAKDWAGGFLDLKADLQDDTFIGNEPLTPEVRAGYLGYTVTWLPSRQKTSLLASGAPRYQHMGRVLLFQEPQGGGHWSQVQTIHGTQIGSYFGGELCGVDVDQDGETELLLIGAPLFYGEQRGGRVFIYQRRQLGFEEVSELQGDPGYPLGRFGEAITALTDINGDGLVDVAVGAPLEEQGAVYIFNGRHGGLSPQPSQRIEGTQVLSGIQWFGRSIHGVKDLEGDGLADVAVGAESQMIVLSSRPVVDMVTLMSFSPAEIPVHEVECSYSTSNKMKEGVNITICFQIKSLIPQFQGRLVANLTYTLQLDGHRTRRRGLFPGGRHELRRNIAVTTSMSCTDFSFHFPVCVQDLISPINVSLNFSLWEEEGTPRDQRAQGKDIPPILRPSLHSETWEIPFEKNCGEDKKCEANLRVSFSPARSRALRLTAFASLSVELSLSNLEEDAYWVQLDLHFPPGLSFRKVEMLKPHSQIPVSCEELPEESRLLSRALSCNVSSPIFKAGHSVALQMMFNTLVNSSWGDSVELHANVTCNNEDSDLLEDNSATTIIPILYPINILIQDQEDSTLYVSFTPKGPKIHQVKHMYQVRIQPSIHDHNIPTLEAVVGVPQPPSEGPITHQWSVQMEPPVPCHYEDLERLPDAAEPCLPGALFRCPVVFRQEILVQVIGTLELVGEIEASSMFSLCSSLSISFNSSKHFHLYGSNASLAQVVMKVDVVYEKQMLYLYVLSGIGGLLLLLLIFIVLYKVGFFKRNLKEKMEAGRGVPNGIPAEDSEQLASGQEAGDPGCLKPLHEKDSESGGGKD
# Chain of LFA-1 (P05107 23-769): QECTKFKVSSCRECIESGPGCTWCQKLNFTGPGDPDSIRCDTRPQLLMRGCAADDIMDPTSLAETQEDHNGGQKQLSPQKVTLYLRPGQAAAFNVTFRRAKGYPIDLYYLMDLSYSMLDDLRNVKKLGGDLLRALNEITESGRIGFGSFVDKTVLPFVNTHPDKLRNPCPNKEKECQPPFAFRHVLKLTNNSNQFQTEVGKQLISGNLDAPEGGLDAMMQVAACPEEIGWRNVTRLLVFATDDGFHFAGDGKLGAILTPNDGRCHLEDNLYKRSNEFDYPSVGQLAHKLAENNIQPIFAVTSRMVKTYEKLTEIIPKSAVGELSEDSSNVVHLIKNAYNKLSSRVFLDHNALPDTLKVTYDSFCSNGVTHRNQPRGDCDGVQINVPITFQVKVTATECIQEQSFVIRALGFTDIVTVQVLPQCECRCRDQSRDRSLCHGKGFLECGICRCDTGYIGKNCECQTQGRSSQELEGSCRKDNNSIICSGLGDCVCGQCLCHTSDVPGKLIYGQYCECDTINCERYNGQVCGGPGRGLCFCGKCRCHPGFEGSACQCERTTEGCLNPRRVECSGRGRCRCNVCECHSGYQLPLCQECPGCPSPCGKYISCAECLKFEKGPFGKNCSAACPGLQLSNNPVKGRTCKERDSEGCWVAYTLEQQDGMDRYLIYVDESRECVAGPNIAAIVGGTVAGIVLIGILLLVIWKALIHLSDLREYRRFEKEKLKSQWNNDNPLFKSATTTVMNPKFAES
# Method: (§1) To address this hypothesis, an ELISA-type binding assay was developed in which neutrophil ligands (LFA-1 and MAC-1/CR3) and […] cell ligands (ICAM-1/CD54 and ICAM-2/CD102) were bound to microtiter plates. Plates were then incubated with increasing amounts of PA-dPEG24 in 1% gelatin/PBS buffer probed with antibody to the peptide and developed.
# To ascertain if PA-dPEG24 could bind ICAM-1 and LFA-1 in plasma, these receptors were coated onto microtiter plates and then incubated with human plasma containing increasing amounts of PA-dPEG24, probed with antibody to the peptide and then developed.
# MAC-1/CR3 = MAC-1/CR3 (Homo sapiens, UniProt P05107+P11215); assay: ELISA-type plate binding assay, MAC-1; conditions: 1% gelatin/PBS buffer
# Chain of MAC-1/CR3 (P05107 23-769, other chains not shown): as the sequence (P05107 23-769) above
# Method: as §1
# ICAM-2/CD102 = ICAM-2/CD102 (Homo sapiens, UniProt P13598); assay: ELISA-type plate binding assay, ICAM-2; conditions: 1% gelatin/PBS buffer
# Chain of ICAM-2/CD102 (P13598 25-275): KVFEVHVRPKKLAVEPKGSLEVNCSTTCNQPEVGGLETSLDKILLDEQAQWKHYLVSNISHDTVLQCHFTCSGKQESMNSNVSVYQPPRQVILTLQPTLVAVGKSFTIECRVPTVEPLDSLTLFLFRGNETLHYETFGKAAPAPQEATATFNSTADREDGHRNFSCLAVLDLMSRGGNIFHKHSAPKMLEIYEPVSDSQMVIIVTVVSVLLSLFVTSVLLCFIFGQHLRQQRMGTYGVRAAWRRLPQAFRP
# Method: as §1
# MPO (myeloperoxidase) = MPO (myeloperoxidase) (Homo sapiens, UniProt P05164); assay: ELISA-type plate binding assay, MPO (positive control ligand); conditions: in human plasma
# Chain of MPO (myeloperoxidase) (P05164 49-745, species assumed): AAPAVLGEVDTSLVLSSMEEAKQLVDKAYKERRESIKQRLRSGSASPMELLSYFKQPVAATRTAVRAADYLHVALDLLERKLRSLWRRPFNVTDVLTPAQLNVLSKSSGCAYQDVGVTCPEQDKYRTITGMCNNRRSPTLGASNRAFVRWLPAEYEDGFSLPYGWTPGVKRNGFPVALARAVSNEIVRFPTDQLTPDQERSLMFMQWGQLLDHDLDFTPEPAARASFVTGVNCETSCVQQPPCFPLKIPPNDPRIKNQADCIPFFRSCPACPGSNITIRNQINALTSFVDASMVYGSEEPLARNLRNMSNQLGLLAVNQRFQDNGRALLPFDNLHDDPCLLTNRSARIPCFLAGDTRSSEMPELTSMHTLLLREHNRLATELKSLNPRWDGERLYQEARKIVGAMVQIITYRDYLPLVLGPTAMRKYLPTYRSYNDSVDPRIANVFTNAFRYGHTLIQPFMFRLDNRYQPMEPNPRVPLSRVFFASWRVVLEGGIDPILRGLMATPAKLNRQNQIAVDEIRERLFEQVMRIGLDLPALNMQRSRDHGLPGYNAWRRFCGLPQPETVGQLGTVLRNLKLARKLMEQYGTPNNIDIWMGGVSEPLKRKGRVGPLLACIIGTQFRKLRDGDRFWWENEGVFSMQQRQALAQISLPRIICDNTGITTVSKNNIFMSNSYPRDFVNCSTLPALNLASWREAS
# [1] = Pharmacokinetics, metabolite profiles and excretion of [14C]-PIC1-dPEG24 after single IV dose; type: in vivo, rat; conditions: for Adjusted Peak Distribution (ROI %) in Rat Plasma: AUC0-24 hr pooled plasma, integrated together: M89/M160, M1444/M1701/M1573, M1288/M1217, M2244/M2357/M2470, M2768/PIC1-dPEG24; for estimated mean concentration within 0-24 hr in AUC0-24 hr pooled plasma: parent value = PIC1-dPEG24 and M2768 together
# Method: […]. The six rats in Group 3 and Group 4 were further divided into two subgroups for serial blood collections at 10, 30 min and 1, 2, 3, 4, 6, 8, 24, and 48 hr. Blood was pooled by equal volume across animals at each time point, and aliquots (˜200 μL) of pooled blood were removed at each time point for total radioactivity, and the rest of blood samples were centrifuged to obtain plasma. Bile, urine, feces, and cage wash samples were collected up to 72 hr in bile duct cannulated (BDC) rats, and up to 168 hr in intact rats, and terminal blood samples were collected at the end of study (72 hr or 168 hr post-doses). The total radioactivity concentrations in the excreta, blood and plasma were determined by homogenization, combustion and/or liquid scintillation counting (LSC). The metabolite profiles and structure characterization were conducted in pooled plasma, urine, and bile samples using LC-UV/MS as well as radioactive detection. […].
# The radioactive profiles of rat plasma samples for the low dose group and the high dose group were qualitatively similar.
# [2] = 1 hour after IVT injection; compared to saline
# [3] = test system: VEGF binding to VEGFR-2 (KDR); assay: VEGF Bioassay (Promega), bioluminescent reporter cells; conditions: increasing peptide concentrations, then human VEGF stimulation
smiles,measurement,setting,value
CC[C@H](C)[C@H](N)C(=O)N[C@@H](C)C(=O)N[C@@H](CC(C)C)C(=O)N[C@H](C(=O)N[C@@H](CC(C)C)C(=O)N[C@@H](CCC(=O)O)C(=O)N1CCC[C@H]1C(=O)N[C@H](C(=O)N[C@@H](CS)C(=O)N[C@@H](CS)C(=O)N[C@@H](CCC(N)=O)C(=O)N[C@@H](CCC(=O)O)C(=O)N[C@@H](CCCNC(=N)N)C(=O)N[C@@H](C)C(=O)N[C@@H](C)C(=O)NCCOCCOCCOCCOCCOCCOCCOCCOCCOCCOCCOCCOCCOCCOCCOCCOCCOCCOCCOCCOCCOCCOCCOCCOCCC(=O)O)[C@@H](C)CC)[C@@H](C)CC [RLS-0071],decrease in C5a generation in the tissues,C5a; 10 mg/kg IV,50%
same,C5a level in blood,"C5a; all rescue doses 40 mg/kg (0.5-180 minutes), 1-hour time point, vs 2-hit only animals",significantly reduced levels of C5a
same,C5a level in blood,"C5a; prophylactic 10, 40 and 160 mg/kg, 5-minute time point, p<0.001 each dose",significant reduction of C5a
same,C5a level in blood,"C5a; prophylactic doses, 1-hour time point, 10 mg/kg reaching significance (p=0.002)",reduction of C5a at the 1-hour time points
same,C5a level in blood,"C5a; rescue 40 mg/kg at 0.5, 60, 90 and 120 minutes (not 180 minutes), 5-minute time point",significantly decreased levels of C5a
same,free DNA level in plasma,"free DNA; prophylactic 10, 40 and 160 mg/kg, 4 hours after transfusion, 160 mg/kg significant (p=0.026)",reduced levels of free DNA
same,free DNA level in plasma,"free DNA; rescue 40 mg/kg up to three hours after 2-hit injury, 120 and 180 minutes significant (p=0.039, p=0.005)",reduced levels of free DNA
same,"neutrophil viability (CCK-8, absorbance 450 nm)",human neutrophils,dose-dependent increase in viability
same,binding to LFA-1,LFA-1; 1% gelatin/PBS buffer,bound dose-dependently
same,binding to LFA-1,LFA-1; in human plasma,bound dose-dependently
same,binding to MAC-1,MAC-1/CR3,but not MAC-1
same,binding to ICAM-2,ICAM-2/CD102,but not ICAM-2
same,binding to MPO,MPO (myeloperoxidase),bound PA-dPEG24 in a dose-dependent manner
same,Adjusted Peak Distribution (ROI %) in Rat Plasma,[1]; Group 3 (20 mg/kg IV),about 12%
same,Adjusted Peak Distribution (ROI %) in Rat Plasma,[1]; Group 4 (200 mg/kg IV),~16%
same,estimated mean concentration within 0-24 hr in AUC0-24 hr pooled plasma,[1]; high dose group (200 mg/kg IV),2225 ng Eq/g
same,estimated mean concentration within 0-24 hr in AUC0-24 hr pooled plasma,[1]; low dose group (20 mg/kg IV),187 ng Eq/g
same,stability in diluted dose solution in water,"6-day storage at -20 °C freezer, M2768 detected",not stable
same,"stability in solutions, rat urine, and/or rat plasma",decomposes to M2768 by dehydrogenation,not stable
same,stability in rat plasma and urine,"spiked into control blank rat plasma and pre-dose urine, or decomposition during sample processing",not stable in rat plasma/urine
same,DAB staining of retinal tissue,[2],significant DAB signal
same,inhibition of VEGF binding to VEGFR-2 and intracellular signaling (luminescence),[3],dose-dependent inhibition of intracellular signaling
